From patent US10160747B2, “Compounds and methods for kinase modulation, and indications therefor” (Plexxikon Inc., priority 2016, dated 2018)

Key:
FLT3-ITD = biological target: T1, FLT3-ITD (Homo sapiens, UniProt P36888); experiment: FLT3-ITD recombinant enzyme kinase assay (AlphaScreen); format: biochemical; settings: 8 pt; read-out: FLT3_ITD 8 pt: IC50
T1 sequence (P36888 1-993): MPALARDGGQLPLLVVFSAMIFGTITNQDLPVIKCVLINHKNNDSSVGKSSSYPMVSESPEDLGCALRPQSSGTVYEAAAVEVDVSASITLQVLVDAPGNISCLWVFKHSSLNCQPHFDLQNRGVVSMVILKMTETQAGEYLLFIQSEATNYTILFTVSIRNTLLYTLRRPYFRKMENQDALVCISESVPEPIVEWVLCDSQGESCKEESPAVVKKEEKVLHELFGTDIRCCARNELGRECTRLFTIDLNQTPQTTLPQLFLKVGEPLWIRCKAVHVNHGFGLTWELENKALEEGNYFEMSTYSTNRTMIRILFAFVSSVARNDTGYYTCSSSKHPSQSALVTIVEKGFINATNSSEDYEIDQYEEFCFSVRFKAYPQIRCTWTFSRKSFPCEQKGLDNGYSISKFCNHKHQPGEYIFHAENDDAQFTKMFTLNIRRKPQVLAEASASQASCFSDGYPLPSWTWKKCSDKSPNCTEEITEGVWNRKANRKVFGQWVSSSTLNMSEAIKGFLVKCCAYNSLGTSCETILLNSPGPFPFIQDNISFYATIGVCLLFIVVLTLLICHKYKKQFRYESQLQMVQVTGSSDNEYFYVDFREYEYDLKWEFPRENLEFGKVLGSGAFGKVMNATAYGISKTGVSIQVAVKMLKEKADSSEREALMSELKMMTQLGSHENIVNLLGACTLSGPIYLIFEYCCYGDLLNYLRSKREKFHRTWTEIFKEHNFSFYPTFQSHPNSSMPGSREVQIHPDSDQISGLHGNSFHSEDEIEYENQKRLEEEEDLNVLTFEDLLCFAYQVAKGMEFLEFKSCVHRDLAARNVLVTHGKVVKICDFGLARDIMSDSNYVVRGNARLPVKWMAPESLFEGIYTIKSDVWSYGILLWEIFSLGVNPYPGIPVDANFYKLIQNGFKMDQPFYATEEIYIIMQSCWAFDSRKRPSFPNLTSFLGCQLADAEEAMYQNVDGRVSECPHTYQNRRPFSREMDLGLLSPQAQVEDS
Outline: (§1)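 Recombinant enzyme phosphorylated biotinylated poly(Glu4-Tyr) peptide (30 nM final) with ATP at 10 μM for FLT3-ITD and FLT3-D835Y or 100 μM for c-KIT. Phosphopeptide was detected by AlphaScreen with streptavidin donor and anti-phosphotyrosine (PY20) acceptor beads (10 μg/mL), read at 580 nm, for IC50 determination.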

FLT3-D835Y = biological target: T2, FLT3-D835Y (Homo sapiens, UniProt P36888, D835Y); experiment: FLT3-D835Y recombinant enzyme kinase assay (AlphaScreen); format: biochemical; settings: 8 pt, GMean
T2 construct: purchased Invitrogen PV3967
T2 sequence (P36888 27-993 D835Y): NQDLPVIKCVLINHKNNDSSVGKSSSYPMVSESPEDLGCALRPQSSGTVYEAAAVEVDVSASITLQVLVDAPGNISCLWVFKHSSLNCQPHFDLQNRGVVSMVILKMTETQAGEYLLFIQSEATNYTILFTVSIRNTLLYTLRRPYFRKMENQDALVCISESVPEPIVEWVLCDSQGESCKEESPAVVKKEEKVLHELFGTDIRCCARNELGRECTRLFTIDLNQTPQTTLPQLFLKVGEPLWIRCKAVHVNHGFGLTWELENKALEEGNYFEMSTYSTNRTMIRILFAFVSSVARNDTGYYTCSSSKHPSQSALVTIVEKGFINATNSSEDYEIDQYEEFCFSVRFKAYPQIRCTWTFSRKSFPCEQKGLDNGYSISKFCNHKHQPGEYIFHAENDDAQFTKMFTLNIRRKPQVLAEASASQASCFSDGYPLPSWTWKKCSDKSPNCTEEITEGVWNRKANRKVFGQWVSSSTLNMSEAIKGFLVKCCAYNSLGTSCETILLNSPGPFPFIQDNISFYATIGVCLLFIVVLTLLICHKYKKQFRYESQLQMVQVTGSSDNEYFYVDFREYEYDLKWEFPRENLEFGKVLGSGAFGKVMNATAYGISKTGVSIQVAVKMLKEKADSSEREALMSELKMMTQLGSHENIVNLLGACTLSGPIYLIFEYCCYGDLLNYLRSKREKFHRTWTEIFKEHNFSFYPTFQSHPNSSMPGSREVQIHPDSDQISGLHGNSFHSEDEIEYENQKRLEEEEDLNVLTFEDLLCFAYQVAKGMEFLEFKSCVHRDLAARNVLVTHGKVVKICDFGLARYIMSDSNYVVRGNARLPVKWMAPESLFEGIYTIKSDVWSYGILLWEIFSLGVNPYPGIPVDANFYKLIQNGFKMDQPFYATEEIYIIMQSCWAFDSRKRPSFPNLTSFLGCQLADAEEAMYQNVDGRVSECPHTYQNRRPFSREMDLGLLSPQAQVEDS
Outline: as §1

Compound	IC50 (FLT3-ITD) [µM]	IC50 (FLT3-D835Y) [µM]
Cn1cc(Nc2ncc(-c3ccc(CC(=O)Nc4cc(C(F)(F)F)ncn4)cc3)cn2)cn1 [Compound P-0135, 2-[4-[2-[(1-methylpyrazol-4-yl)amino]pyrimidin-5-yl]phenyl]-N-[6-(trifluoromethyl)pyrimidin-4-yl]acetamide]	0.0001 to 10	0.0001 to 10
Cn1cc(Nc2ncc(-c3ccc(CC(=O)Nc4cncc(C(F)(F)F)c4)cc3)cn2)cn1 [Compound P-0136, 2-[4-[2-[(1-methylpyrazol-4-yl)amino]pyrimidin-5-yl]phenyl]-N-[5-(trifluoromethyl)-3-pyridyl]acetamide]	0.0001 to 10	0.0001 to 10
Cn1cc(Nc2ncc(-c3ccc(CC(=O)Nc4ccnc(C(F)(F)F)n4)cc3)cn2)cn1 [Compound P-0137, 2-[4-[2-[(1-methylpyrazol-4-yl)amino]pyrimidin-5-yl]phenyl]-N-[2-(trifluoromethyl)pyrimidin-4-yl]acetamide]	0.0001 to 10	0.0001 to 10
COc1ncc(NC(=O)Cc2ccc(-c3cnc(Nc4cnn(C)c4)nc3)cc2)cc1C(F)(F)F [Compound P-0138, N-[6-methoxy-5-(trifluoromethyl)-3-pyridyl]-2-[4-[2-[(1-methylpyrazol-4-yl)amino]pyrimidin-5-yl]phenyl]acetamide]	0.0001 to 10	0.0001 to 10
Cn1cc(Nc2ncc(-c3ccc(CC(=O)Nc4cc(C(F)(F)F)ccn4)cc3)cn2)cn1 [Compound P-0139, 2-[4-[2-[(1-methylpyrazol-4-yl)amino]pyrimidin-5-yl]phenyl]-N-[4-(trifluoromethyl)-2-pyridyl]acetamide]	0.0001 to 10	0.0001 to 10
Cc1ncc(NC(=O)Cc2ccc(-c3cnc(Nc4cnn(C)c4)nc3)cc2)cc1C(F)(F)F [Compound P-0140, 2-[4-[2-[(1-methylpyrazol-4-yl)amino]pyrimidin-5-yl]phenyl]-N-[6-methyl-5-(trifluoromethyl)-3-pyridyl]acetamide]	0.0001 to 10	0.0001 to 10
Cn1cc(Nc2ncc(-c3ccc(CC(=O)Nc4cccc(C(F)(F)F)c4)cc3)cn2)cn1 [Compound P-0141, 2-[4-[2-[(1-methylpyrazol-4-yl)amino]pyrimidin-5-yl]phenyl]-N-[3-(trifluoromethyl)phenyl]acetamide]	0.0001 to 10	0.0001 to 10
Cn1cc(Nc2ncc(-c3ccc(CC(=O)Nc4ccc(C(F)(F)F)c(F)c4)cc3)cn2)cn1 [Compound P-0142, N-[3-fluoro-4-(trifluoromethyl)phenyl]-2-[4-[2-[(1-methylpyrazol-4-yl)amino]pyrimidin-5-yl]phenyl]acetamide]	0.0001 to 10	0.0001 to 10
Cn1cc(Nc2ncc(-c3ccc(CC(=O)Nc4ccc(C(C)(C)C)nc4)cc3)cn2)cn1 [Compound P-0143, N-(6-tert-butyl-3-pyridyl)-2-[4-[2-[(1-methylpyrazol-4-yl)amino]pyrimidin-5-yl]phenyl]acetamide]	0.0001 to 10	0.0001 to 10
Cn1cc(Nc2ncc(-c3ccc(CC(=O)Nc4cncc(C(C)(F)F)c4)cc3)cn2)cn1 [Compound P-0144, N-[5-(1,1-difluoroethyl)-3-pyridyl]-2-[4-[2-[(1-methylpyrazol-4-yl)amino]pyrimidin-5-yl]phenyl]acetamide]	0.0001 to 10	0.0001 to 10
Cn1cc(Nc2ncc(-c3ccc(CC(=O)Nc4cnc(Cl)c(C(F)(F)F)c4)cc3)cn2)cn1 [Compound P-0145, N-[6-chloro-5-(trifluoromethyl)-3-pyridyl]-2-[4-[2-[(1-methylpyrazol-4-yl)amino]pyrimidin-5-yl]phenyl]acetamide]	0.0001 to 10	0.0001 to 10
Cn1cc(Nc2ncc(-c3ccc(CC(=O)Nc4ccc(C(C)(C)C#N)nc4)cc3)cn2)cn1 [Compound P-0146, N-[6-(1-cyano-1-methyl-ethyl)-3-pyridyl]-2-[4-[2-[(1-methylpyrazol-4-yl)amino]pyrimidin-5-yl]phenyl]acetamide]	0.0001 to 10	0.0001 to 10
COc1ncc(NC(=O)Cc2ccc(-c3cnc(Nc4cn(C)cn4)nc3)cc2)cc1C(F)(F)F [Compound P-0149, N-[6-methoxy-5-(trifluoromethyl)-3-pyridyl]-2-[4-[2-[(1-methylimidazol-4-yl)amino]pyrimidin-5-yl]phenyl]acetamide]	0.0001 to 10	0.0001 to 10
Cc1ncc(NC(=O)Cc2ccc(-c3cnc(Nc4cn(C)cn4)nc3)cc2)cc1C(F)(F)F [Compound P-0150, 2-[4-[2-[(1-methylimidazol-4-yl)amino]pyrimidin-5-yl]phenyl]-N-[6-methyl-5-(trifluoromethyl)-3-pyridyl]acetamide]	0.0001 to 10	0.0001 to 10
Cn1cc(Nc2ncc(-c3ccc(CC(=O)Nc4cnnc(Cl)c4)cc3)cn2)cn1 [Compound P-0151, N-(6-chloropyridazin-4-yl)-2-[4-[2-[(1-methylpyrazol-4-yl)amino]pyrimidin-5-yl]phenyl]acetamide]	0.0001 to 10	0.0001 to 10
Cn1cc(Nc2ncc(-c3ccc(CC(=O)Nc4cccc(C(F)(F)F)n4)cc3)cn2)cn1 [Compound P-0152, 2-[4-[2-[(1-methylpyrazol-4-yl)amino]pyrimidin-5-yl]phenyl]-N-[6-(trifluoromethyl)-2-pyridyl]acetamide]	0.0001 to 10	0.0001 to 10
Cn1cc(Nc2ncc(-c3ccc(CC(=O)Nc4ccnc(S(C)(=O)=O)c4)cc3)cn2)cn1 [Compound P-0154, 2-[4-[2-[(1-methylpyrazol-4-yl)amino]pyrimidin-5-yl]phenyl]-N-(2-methylsulfonyl-4-pyridyl)acetamide]	0.0001 to 10	0.0001 to 10
Cn1cc(Nc2ncc(-c3ccc(CC(=O)Nc4cccc(S(C)(=O)=O)c4)cc3)cn2)cn1 [Compound P-0155, 2-[4-[2-[(1-methylpyrazol-4-yl)amino]pyrimidin-5-yl]phenyl]-N-(3-methylsulfonylphenyl)acetamide]	0.0001 to 10	0.0001 to 10
Cn1cc(Nc2ncc(-c3ccc(CC(=O)Nc4ccc(S(C)(=O)=O)cc4)cc3)cn2)cn1 [Compound P-0156, 2-[4-[2-[(1-methylpyrazol-4-yl)amino]pyrimidin-5-yl]phenyl]-N-(4-methylsulfonylphenyl)acetamide]	0.0001 to 10	0.0001 to 10
Cn1cc(Nc2ncc(-c3ccc(CC(=O)Nc4cccc(OC(F)(F)F)c4)cc3)cn2)cn1 [Compound P-0157, 2-[4-[2-[(1-methylpyrazol-4-yl)amino]pyrimidin-5-yl]phenyl]-N-[3-(trifluoromethoxy)phenyl]acetamide]	0.0001 to 10	0.0001 to 10
Cn1cc(Nc2ncc(-c3ccc(CC(=O)Nc4cccc(C(C)(C)C#N)c4)cc3)cn2)cn1 [Compound P-0158, N-[3-(1-cyano-1-methyl-ethyl)phenyl]-2-[4-[2-[(1-methylpyrazol-4-yl)amino]pyrimidin-5-yl]phenyl]acetamide]	0.0001 to 10	0.0001 to 10
